In patent publication US20100010049A1, “Novel Tyrosinase inhibitors and pharmaceutical/cosmetic applications thereof” (GALDERMA RESEARCH & DEVELOPMENT, priority 2006, published 2010):
pIC50: −log10 of the molar value.

Columns and labels:
tyrosinase = molecular target: T1, tyrosinase (Mus musculus, UniProt P11344); test: Tyrosinase activity inhibition assay (B16F1 cell lysate, L-tyrosine substrate, MBTH, absorbance at 520 nm); assay type: biochemical; conditions: lysate of B16F1 cells (murine melanoma line) as tyrosinase source, 37° C., reading at 520 nm after 6 hours
T1 construct: the supernatant obtained constitutes the cell lysate used as tyrosinase source in the enzymatic assay; endogenous in cells; host or cells: B16F1 murine melanoma cells, cultured with alpha-MSH; detergent lysate supernatant
T1 sequence (P11344 19-533): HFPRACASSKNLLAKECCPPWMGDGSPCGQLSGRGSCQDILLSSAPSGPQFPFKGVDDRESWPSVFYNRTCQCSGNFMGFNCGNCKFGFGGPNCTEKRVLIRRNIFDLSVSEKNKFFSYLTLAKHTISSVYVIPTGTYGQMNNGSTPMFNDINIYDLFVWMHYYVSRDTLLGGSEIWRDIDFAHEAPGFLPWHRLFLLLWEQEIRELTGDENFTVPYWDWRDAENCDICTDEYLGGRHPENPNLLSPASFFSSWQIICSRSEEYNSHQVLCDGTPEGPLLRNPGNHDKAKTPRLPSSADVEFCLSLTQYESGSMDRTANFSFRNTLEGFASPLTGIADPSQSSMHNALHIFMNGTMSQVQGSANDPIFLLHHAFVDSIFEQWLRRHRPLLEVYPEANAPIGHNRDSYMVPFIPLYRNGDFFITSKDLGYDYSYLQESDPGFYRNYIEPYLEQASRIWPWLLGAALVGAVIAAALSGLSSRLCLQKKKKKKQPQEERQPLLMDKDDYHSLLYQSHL
Method: The activity of the inhibitors is measured starting from a lysate of B16F1 cells (murine melanoma line). In the presence of the L-tyrosine substrate, the tyrosinase present in these cells catalyses the hydroxylation of L-tyrosine to give L-DOPA and then the oxidation of the L-DOPA to give dopaquinone. In the presence of MBTH (3-methyl-2-benzothiazolinone hydrazone), the dopaquinone is trapped so as to form a pink complex which absorbs at 520 nm.
The B16F1 cells are cultured in DMEM medium+10% foetal calf serum+10^−9 M α-MSH for 4 days at 37° C. under 7% CO2. They are treated with trypsin, washed with PBS, counted and pelleted. The pellet is taken up at 10^7 cells/ml in lysis buffer (10 mM sodium phosphate, pH 6.8−1% Igepal) and the suspension is treated with ultrasound for 10 seconds. After centrifugation for 30 minutes at 4000 rpm, the supernatant obtained constitutes the cell lysate used as tyrosinase source in the enzymatic assay.
The assays are carried out in duplicate in 384-well plates in a total volume of 50 μl. Each well contains: • 40 μl of solution containing 1.25 mM L-tyrosine, 6.25 μM L-DOPA (cofactor) and 3.75 mM MBTH in buffer B (62.25 mM sodium phosphate, pH 6.8-2.5% dimethylformamide), • 5 μl of inhibitor diluted in DMSO, • 5 μl of cell lysate diluted to ½ in 50 mM Tris HCl buffer, pH 7.5.
The plate is incubated at 37° C. and a spectrophotometric reading is carried out at 520 nm after incubating for 6 hours. In order to avoid any possible absorption of the products, the system employs corrected absorbance (absorbance at time 6 h—absorbance at time zero).
The inhibitors are assayed in terms of dose-response so as to calculate an IC50 (dose which inhibits 50% of the enzymatic activity).
Several internal controls are added to each experiment: • control for 100% activity: the 5 μl of inhibitor are replaced with 5 μl of DMSO, • control for 50% activity: the 5 μl of inhibitor are replaced with 5 μl of phenylthiourea at 300 μM in DMSO, • control for 0% activity: the L-tyrosine substrate is replaced with buffer B.

SMILES | melting point [°C] | pIC50 (tyrosinase)
COn1cc[nH]c1=S [Compound 1, 1-methoxy-1,3-dihydroimidazole-2-thione] | 111 to 111.8 | 
S=c1[nH]ccn1OCc1cccnc1 [Compound 2, 1-(pyridin-3-ylmethoxy)-1,3-dihydroimidazole-2-thione] | 128 to 129 | 
COn1ccn(C)c1=S [Compound 3, 1-methoxy-3-methyl-1,3-dihydroimidazole-2-thione] | 56.9 to 57.5 | 4.14
On1c(-c2ccccc2)c[nH]c1=S [Compound 4, 1-hydroxy-5-phenyl-1,3-dihydroimidazole-2-thione] |  | 6.05
On1cc(-c2ccccc2)[nH]c1=S [Compound 5, 1-hydroxy-4-phenyl-1,3-dihydroimidazole-2-thione] | 196.3 | 
COc1ccc(-c2c[nH]c(=S)n2O)cc1 [Compound 6, 1-hydroxy-5-(4-methoxyphenyl)-1,3-dihydroimidazole-2-thione] | 150 | 6.09
COc1ccc(-c2cn(O)c(=S)[nH]2)cc1 [Compound 7, 1-hydroxy-4-(4-methoxyphenyl)-1,3-dihydroimidazole-2-thione] | 160 | 
On1c(-c2cccs2)c[nH]c1=S [Compound 8, 1-hydroxy-5-(thiophen-2-yl)-1,3-dihydroimidazole-2-thione] | 183.6 to 184.8 | 5.43
